In paper PMC6469940 (Science Advances, 2019):

Molecular target: T1, hM4D(Gi) (human M4 muscarinic receptor-based DREADD) (Homo sapiens, UniProt P08173, A203G/Y113C)
T1 construct: gene CHRM4; hM4D(Gi) plasmid (Addgene 45548)
T1 sequence (P08173 1-479 Y113C/A203G): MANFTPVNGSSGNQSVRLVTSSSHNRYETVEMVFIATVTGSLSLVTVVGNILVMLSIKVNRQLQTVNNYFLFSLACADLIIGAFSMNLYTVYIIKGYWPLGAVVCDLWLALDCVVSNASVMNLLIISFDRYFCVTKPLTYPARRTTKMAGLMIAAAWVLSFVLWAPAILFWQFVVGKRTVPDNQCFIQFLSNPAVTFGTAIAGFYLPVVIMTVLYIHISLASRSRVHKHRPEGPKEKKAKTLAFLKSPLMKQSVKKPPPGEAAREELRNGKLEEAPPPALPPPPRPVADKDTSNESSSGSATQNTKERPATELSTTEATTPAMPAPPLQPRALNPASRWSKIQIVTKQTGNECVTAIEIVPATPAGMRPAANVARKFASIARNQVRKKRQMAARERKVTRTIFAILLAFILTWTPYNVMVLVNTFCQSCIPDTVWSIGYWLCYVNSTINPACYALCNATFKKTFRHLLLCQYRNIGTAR
Assay: whole-cell patch clamp of Kir3.[…] current potentiation in HEK cells transfected with hM4D(Gi)
Assay type: cell-based

SMILES | EC50
c1ccc2c(c1)N=C(N1CCNCC1)c1ccccc1N2 [C21, compound 21] | 0.02 ± 0.004 µM
CN1CCN(C2=Nc3ccccc3Cc3ccccc32)CC1 [PLP, perlapine] | 0.04 ± 0.01 µM
